Results from article PMC6777825, “Differential scanning fluorimetric analysis of the amino-acid binding to taste receptor using a model receptor protein, the ligand-binding domain of fish T1r2a/T1r3” (PLoS ONE, 2019).
Read-outs that look alike come from different tables or passages of the source.

Columns and labels:
medaka T1r2a/T1r3LBD = medaka T1r2a/T1r3LBD (Oryzias latipes, UniProt A0A173M094+A0A173M0G2); assay: Differential scanning fluorimetry (DSF) thermal shift ligand-binding assay; design: species or system O. latipes; settings: for ΔTm: average ± s.e.m., n = 4; for effect on thermal stability / Tm shift of T1r2a/T1r3LBD (in words): DSF, 0.1-10 mM amino acid; for Tm shift (in words): adding up to 10 mM
Protocol: The protein sample was prepared as described previously. Briefly, Drosophila S2 cells (Invitrogen) stably expressing C-terminal FLAG-tagged T1r2aLBD and T1r3LBD [11, 21] were cultured in ExpressFiveSFM (LifeTechnologies) for five days at 27 °C. The T1r2a/T1r3-LBD protein was purified from the culture medium by the use of ANTI-FLAG M2 Affinity Gel (SIGMA). The purified protein was dialyzed against the assay buffer (20 mM Tris-HCl, 300 mM NaCl, 2 mM CaCl2, pH 8.0).
The protein sample (~1 μg) was mixed with Protein Thermal Shift Dye (Applied Biosystems) and 10~10,000 μM concentration of each amino acid in 20 μL of assay buffer and loaded to a MicroAmpR Fast Optical 48-Well Reaction Plate (Applied Biosystems). Specifically, to minimize the changes of the chemical and optical condition, the amino acid solutions were prepared by the exact same buffer used for the final dialysis of the protein, followed by the re-adjustment of the pH to ~ 8.0 by addition of either NaOH or HCl, and mixed with the protein diluted with the same buffer.
Fluorescent intensity was measured by the StepOne Real-Time PCR System (Applied Biosystems). The temperature was raised from 25 °C to 99 °C with a velocity of 0.022 °C/sec. The reporter and quencher for detection were set as “ROX” and “none”, respectively. Apparent melting transition temperature (Tm) was determined by the use of the maximum of the derivatives of the melt curve (dFluorescence/dT) by Protein Thermal Shift Software version 1.3 (Applied Biosystems).
The apparent dissociation constant (Kd-app) derived from the DSF results was estimated based on Eq 1 proposed by Schellman, assuming that the unfolding of the protein is reversible: ΔTm=Tm−T0=TmT0R/ΔH^0ln(1+[L]/Kd-app) (1) where [L] is the ligand concentration; Tm and T0 are the apparent melting transition temperatures in the presence and absence of the ligand; R is the gas constant; ΔH^0 is the enthalpy of unfolding at T0, assuming that there are no significant variations under the tested conditions. If the melt curves show biphasic profiles, the second (or the right side) Tm values were adopted for calculation, as described in the Results section.
For multiple regression analyses shown in Fig 2B, the apparent Tm values determined at different ligand concentrations were fitted to Eq 1 by using KaleidaGraph (Synergy Software), assuming that the change of the dissociation constant accompanied by the Tm shift is negligible.

[1] = molecular target: T1r2a/T1r3 full-length receptor (Oryzias latipes, UniProt A0A173M094+A0A173M0G2); assay: Ca2+-flux receptor response assay in Flip-In 293 cells stably expressing full-length T1r2a, T1r3 and Gα16-gust44; format: cell-based, O. latipes; settings: for ΔRFU: average ± s.e.m.
Protocol: The Ca^2+-flux assay was performed using Flip-In 293 cell line (Life Technologies) stably expressing full-length T1r2a, T1r3, and Gα16-gust44 as described previously. The response stimulated by either 5 or 10 mM amino acid was represented asΔRFU (delta relative fluorescence unit) defined as the maximum fluorescence intensity induced by the addition of the amino acid, subtracted with that of an assay buffer in the absence of amino acid.

[2] = cited from earlier work; for Hydropathy Index: hydrophobicity/hydrophilicity, ref Kyte & Doolittle, J. Mol. Biol., 157, 105 (1982); for pI: ref Handbook of Chemistry and Physics, CRC Press; for logKd_CW (polarity): transfer from cyclohexane to an aqueous solution, ref Radzicka & Wolfenden, Biochemistry, 27, 1664 (1988); for Es'c (steric effects) / πα (hydrophobicity) / HP (hydration potential): α-substituent group; for Es'c (steric effects) / πα (hydrophobicity): ref Akamatsu et al., J. Pharm. Sci., 83, 1026 (1994); for HP (hydration potential): ref Wolfenden et al., Biochemistry, 20, 849 (1981)
[3] = 5 mM amino acid, n = 6 (n = 12 for L-glutamine)
[4] = estimated from ΔRFU at 10 mM by Hill equation, ΔRFUmax 104.3, read-out: EC50-est
[5] = from response at 10 mM, log 1/EC50-est, read-out: pEC50-est (converted)
[6] = from ΔTm at 0.1 mM via Eq 1, T0 326.1 K, ΔH0 72.1 kcal mol-1, read-out: Kd-app estimated at a single ligand concentration
[7] = from ΔTm at 1 mM via Eq 1, T0 326.1 K, ΔH0 72.1 kcal mol-1, read-out: Kd-app estimated at a single ligand concentration
[8] = from ΔTm at 10 mM via Eq 1, T0 326.1 K, ΔH0 72.1 kcal mol-1, read-out: Kd-app estimated at a single ligand concentration
[9] = log 1/Kd-app, converted from S1 Table values (10 mM; L-Ala 1 mM, L-Gln 0.1 mM)
[10] = from response at 10 mM, log 1/EC50-est

Chain of medaka T1r2a/T1r3LBD (A0A173M094 entry or part of it): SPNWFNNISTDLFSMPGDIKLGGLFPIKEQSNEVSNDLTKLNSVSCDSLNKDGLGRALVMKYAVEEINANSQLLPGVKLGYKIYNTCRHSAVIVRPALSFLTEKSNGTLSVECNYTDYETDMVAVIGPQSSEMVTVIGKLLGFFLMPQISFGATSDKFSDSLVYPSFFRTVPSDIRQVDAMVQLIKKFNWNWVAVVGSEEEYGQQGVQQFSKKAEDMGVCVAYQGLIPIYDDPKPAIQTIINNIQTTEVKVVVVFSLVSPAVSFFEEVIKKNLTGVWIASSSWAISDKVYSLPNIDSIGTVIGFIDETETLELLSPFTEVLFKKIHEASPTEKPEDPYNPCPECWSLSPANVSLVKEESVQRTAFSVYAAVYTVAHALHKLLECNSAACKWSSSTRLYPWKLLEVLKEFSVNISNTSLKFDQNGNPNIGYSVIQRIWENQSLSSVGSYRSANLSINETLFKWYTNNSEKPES
Chain of medaka T1r2a/T1r3LBD (A0A173M0G2 entry or part of it): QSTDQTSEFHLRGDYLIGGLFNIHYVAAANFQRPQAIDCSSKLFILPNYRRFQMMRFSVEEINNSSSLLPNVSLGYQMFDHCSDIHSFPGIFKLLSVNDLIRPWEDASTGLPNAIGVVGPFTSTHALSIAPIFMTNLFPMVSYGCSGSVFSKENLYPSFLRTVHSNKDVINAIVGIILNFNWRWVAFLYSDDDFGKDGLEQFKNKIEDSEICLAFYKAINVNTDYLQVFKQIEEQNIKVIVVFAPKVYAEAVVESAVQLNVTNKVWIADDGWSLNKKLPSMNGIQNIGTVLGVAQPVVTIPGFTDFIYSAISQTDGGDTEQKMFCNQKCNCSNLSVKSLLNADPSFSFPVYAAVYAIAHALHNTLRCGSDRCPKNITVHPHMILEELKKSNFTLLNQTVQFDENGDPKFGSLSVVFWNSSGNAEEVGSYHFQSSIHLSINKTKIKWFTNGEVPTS
Chain of T1r2a/T1r3 full-length receptor (A0A173M0G2 entry or part of it): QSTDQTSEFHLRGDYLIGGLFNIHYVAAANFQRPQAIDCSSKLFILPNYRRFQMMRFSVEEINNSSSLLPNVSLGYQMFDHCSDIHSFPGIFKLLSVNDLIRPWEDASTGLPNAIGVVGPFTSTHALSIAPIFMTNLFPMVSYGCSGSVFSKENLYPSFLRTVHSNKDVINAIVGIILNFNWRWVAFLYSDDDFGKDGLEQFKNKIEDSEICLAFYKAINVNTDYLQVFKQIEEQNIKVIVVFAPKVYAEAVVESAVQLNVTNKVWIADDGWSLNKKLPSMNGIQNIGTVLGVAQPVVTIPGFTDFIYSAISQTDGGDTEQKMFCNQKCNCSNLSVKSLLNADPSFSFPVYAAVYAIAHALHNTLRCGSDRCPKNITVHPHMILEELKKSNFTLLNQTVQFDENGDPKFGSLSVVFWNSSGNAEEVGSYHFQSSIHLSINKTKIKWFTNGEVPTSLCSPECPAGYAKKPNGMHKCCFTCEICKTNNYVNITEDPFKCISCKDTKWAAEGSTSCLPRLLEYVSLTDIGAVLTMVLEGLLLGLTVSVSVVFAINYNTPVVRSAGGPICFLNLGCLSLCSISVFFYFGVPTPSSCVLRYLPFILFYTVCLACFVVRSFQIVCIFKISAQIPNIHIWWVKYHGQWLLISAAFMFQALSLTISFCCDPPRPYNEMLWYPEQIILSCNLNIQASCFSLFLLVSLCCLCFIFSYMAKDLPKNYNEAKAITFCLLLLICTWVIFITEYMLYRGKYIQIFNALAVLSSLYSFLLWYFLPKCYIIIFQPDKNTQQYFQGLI
Chain of T1r2a/T1r3 full-length receptor (A0A173M094 entry or part of it): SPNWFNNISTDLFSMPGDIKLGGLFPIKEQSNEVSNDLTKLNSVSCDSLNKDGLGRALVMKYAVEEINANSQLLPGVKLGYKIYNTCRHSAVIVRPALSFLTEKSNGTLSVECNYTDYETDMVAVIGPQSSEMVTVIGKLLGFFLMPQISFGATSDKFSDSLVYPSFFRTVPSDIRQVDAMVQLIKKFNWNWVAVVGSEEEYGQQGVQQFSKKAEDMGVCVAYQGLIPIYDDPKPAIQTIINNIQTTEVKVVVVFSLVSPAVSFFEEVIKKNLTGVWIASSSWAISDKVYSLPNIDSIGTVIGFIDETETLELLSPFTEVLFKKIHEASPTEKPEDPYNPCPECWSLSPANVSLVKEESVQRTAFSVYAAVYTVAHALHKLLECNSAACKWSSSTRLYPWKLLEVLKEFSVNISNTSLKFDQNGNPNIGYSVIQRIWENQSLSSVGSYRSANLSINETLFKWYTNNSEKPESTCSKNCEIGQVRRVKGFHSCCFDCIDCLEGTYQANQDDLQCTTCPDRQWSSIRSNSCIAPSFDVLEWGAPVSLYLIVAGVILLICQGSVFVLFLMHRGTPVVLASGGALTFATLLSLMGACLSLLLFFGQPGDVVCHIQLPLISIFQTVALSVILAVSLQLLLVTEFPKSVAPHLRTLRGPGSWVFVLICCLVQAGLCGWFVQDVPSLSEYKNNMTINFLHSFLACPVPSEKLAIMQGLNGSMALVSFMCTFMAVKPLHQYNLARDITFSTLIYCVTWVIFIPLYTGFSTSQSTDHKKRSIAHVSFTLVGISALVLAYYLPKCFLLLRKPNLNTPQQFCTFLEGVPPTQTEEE

| SMILES | ΔTm (medaka T1r2a/T1r3LBD; 0.1 mM amino acid) | ΔTm (medaka T1r2a/T1r3LBD; 1 mM amino acid) | ΔTm (medaka T1r2a/T1r3LBD; 10 mM amino acid) | ΔRFU [1, 3] | ΔRFU ([1]; 10 mM amino acid, n = 6) | EC50 [1, 4] | potency estimated from few doses (medaka T1r2a/T1r3LBD; [6]) | potency estimated from few doses (medaka T1r2a/T1r3LBD; [7]) | potency estimated from few doses (medaka T1r2a/T1r3LBD; [8]) | pKd-app (medaka T1r2a/T1r3LBD; [9]) | pEC50-est [1, 10] | Hydropathy Index [2] | pI [2] | logKd_CW (polarity) [2] | Es'c (steric effects) [2] | πα (hydrophobicity) [2] | HP (hydration potential) [2] | further results |
| --- | --- | --- | --- | --- | --- | --- | --- | --- | --- | --- | --- | --- | --- | --- | --- | --- | --- | --- |
| C[C@@H](N)C(=O)O [D-Ala, D-alanine] | 0.15 ± 0.05 K | -0.33 ± 0.07 K | -1.03 ± 0.09 K | 7.08 ± 2.16 | 23.6 ± 8.83 | 34.2 mM |  |  |  |  |  |  |  |  |  |  |  | effect on thermal stability / Tm shift of T1r2a/T1r3LBD (in words) (medaka T1r2a/T1r3LBD): thermal destabilization; Tm shift (in words) (medaka T1r2a/T1r3LBD; listed as D-alanine): did not induce a significant Tm shift; Tm shift (in words) (medaka T1r2a/T1r3LBD; listed as d-alanine): no substantial Tm shifts; potency estimated from few doses (medaka T1r2a/T1r3LBD; read-out: Kd-app estimated at a single ligand concentration, from ΔTm at 0.1 mM via Eq 1, T0 326.1 K, ΔH0 72.1 kcal mol-1): 1.95 mM; full-length receptor response (in words) ([1]; 5 or 10 mM, compared to enantiomer L-alanine): significantly weak responses; EC50 ([1]; estimated from ΔRFU at 5 mM by Hill equation, ΔRFUmax 104.3, read-out: EC50-est): 68.7 mM; EC50 ([1]; from response at 5 mM, log 1/EC50-est, read-out: pEC50-est (converted)): 69.2 mM; EC50 [1, 5]: 33.9 mM |
| NC(=O)C[C@H](N)C(=O)O [L-Asn] | 0.12 ± 0.07 K | 0.38 ± 0.06 K | 4.36 ± 0.99 K | 0.460 ± 2.58 | 15.7 ± 6.13 | 56.3 mM | 2.4 mM | 7.33 mM | 3 mM | 2.52 | 1.25 | -3.5 | 5.41 | 4.88 | -0.98 | -0.52 | -9.68 |  |
| N[C@@H](CC(=O)O)C(=O)O [L-Asp, L-aspartate] | -0.06 ± 0.17 K | -1.71 ± 0.19 K | 0.74 ± 0.05 K | -4.00 ± 1.10 | -9.43 ± 1.83 |  |  |  | 34.9 mM |  |  | -3.5 | 2.77 | 3.27 | -0.98 | 0.05 | -10.95 | effect on thermal stability / Tm shift of T1r2a/T1r3LBD (in words) (medaka T1r2a/T1r3LBD): destabilized the protein; Kd (medaka T1r2a/T1r3LBD; log 1/Kd-app, converted from S1 Table values (10 mM; L-Ala 1 mM, L-Gln 0.1 mM), read-out: pKd-app (converted)): 34.7 mM |
| N[C@@H](Cc1c[nH]cn1)C(=O)O [L-His] | -3.75 ± 0.33 K | 1.21 ± 0.02 K | 5.81 ± 0.07 K | 4.72 ± 2.39 | 14.4 ± 6.62 | 62.4 mM |  | 1.96 mM | 1.67 mM | 2.78 | 1.20 | -3.2 | 7.59 | 3.34 | -0.86 | 0.17 | -10.27 |  |
| CC[C@H](C)[C@H](N)C(=O)O [L-Ile] | -0.50 ± 0.11 K | -0.57 ± 0.07 K | 2.89 ± 2.40 K | 2.90 ± 2.82 | 30.5 ± 6.26 | 24.2 mM |  |  | 6.04 mM | 2.22 | 1.62 | 4.5 | 6.02 | -3.62 | -1.81 | 1.43 | 2.15 |  |
| CC(C)C[C@H](N)C(=O)O [L-Leu] | 0.08 ± 0.09 K | -0.94 ± 0.07 K | 6.91 ± 0.05 K | 0.933 ± 1.91 | 27.8 ± 5.89 | 27.5 mM | 3.49 mM |  | 1.11 mM | 2.96 | 1.56 |  |  | -3.62 | -1.44 | 1.52 | 2.28 |  |
| NCCCC[C@H](N)C(=O)O [L-Lys, L-lysine] | -0.04 ± 0.03 K | -0.40 ± 0.17 K | -3.83 ± 0.30 K | 8.68 ± 4.29 | 18.5 ± 8.01 |  |  |  |  |  |  |  |  |  |  |  |  | effect on thermal stability / Tm shift of T1r2a/T1r3LBD (in words) (medaka T1r2a/T1r3LBD; listed as L-lysine): thermal destabilization; effect on thermal stability / Tm shift of T1r2a/T1r3LBD (in words) (medaka T1r2a/T1r3LBD; listed as lysine): destabilized the protein; EC50 ([1]; EC50-est, estimated from ΔRFU at 5 mM by Hill equation, ΔRFUmax 104.3): 55.1 mM; EC50 ([1]; EC50-est, estimated from ΔRFU at 10 mM by Hill equation, ΔRFUmax 104.3): 46.5 mM; EC50 ([1]; pEC50-est, from response at 5 mM, log 1/EC50-est): 55 mM; EC50 ([1]; pEC50-est, from response at 10 mM, log 1/EC50-est): 46.8 mM |
| CSCC[C@H](N)C(=O)O [L-Met] | 0.45 ± 0.11 K | 6.17 ± 0.05 K | 8.85 ± 0.06 K | -2.52 ± 1.72 | 21.8 ± 7.73 | 37.9 mM | 0.604 mM | 0.146 mM | 0.562 mM | 3.25 | 1.42 | 1.9 | 5.74 | -1.73 | -1.03 | 0.99 | -1.48 |  |
| N[C@@H](Cc1ccccc1)C(=O)O [L-Phe] | 0.30 ± 0.04 K | 1.04 ± 0.12 K | 3.53 ± 0.05 K | 2.08 ± 2.32 | 22.4 ± 5.78 | 36.5 mM | 0.918 mM | 2.37 mM | 4.37 mM | 2.36 | 1.44 | 2.8 | 5.48 | -2.19 | -0.9 | 1.78 | -0.76 |  |
| O=C(O)[C@@H]1CCCN1 [L-Pro, L-proline] | -0.15 ± 0.04 K | 0.04 ± 0.07 K | 7.24 ± 0.02 K | 2.90 ± 1.93 | 45.1 ± 7.06 | 13.2 mM |  |  |  |  |  |  |  |  |  |  |  | potency estimated from few doses (medaka T1r2a/T1r3LBD; read-out: Kd-app estimated at a single ligand concentration, from ΔTm at 1 mM via Eq 1, T0 326.1 K, ΔH0 72.1 kcal mol-1): 79.9 mM; potency estimated from few doses (medaka T1r2a/T1r3LBD; read-out: Kd-app estimated at a single ligand concentration, from ΔTm at 10 mM via Eq 1, T0 326.1 K, ΔH0 72.1 kcal mol-1): 0.985 mM; EC50 [1, 5]: 13.2 mM |
